# How the values were obtained:
# [1] = system: blood vessels and nerve fibers in the penis; experiment: Penile tissue histology, nNOS staining and electron microscopy (Example 9); format: in vivo, rat; conditions: 3 months after bilateral cavernous nerve freezing
# Protocol: (§1) Three months old Sprague-Dawley rats (N=30) were used: 6 underwent a sham operation; 24 underwent bilateral cavernous nerve freezing and then randomly divided into four groups of 6 each. The four groups of rats received intracavernous injection of one of the following: 1) phosphate buffered saline (PBS), 2) VEGF protein (4 μg), 3) adeno-associated virus (AAV)-BDNF, and 4). VEGF+AAV-BDNF. Erectile function was assessed by cavernous nerve electrostimulation 3 months later and samples of penile tissue were obtained for electron microscopy and immunohistochemical studies.
# [2] = system: cavernous nerve injury in rats; experiment: Maximal intracavernous pressure after bilateral cavernous nerve freezing (Example 9, VENT); format: in vivo, rat; conditions: 3 months after bilateral cavernous nerve freezing, intracavernous injection
# Protocol: as §1
# VSMC (aorta SMC) [3] = conditions: VSMC from 16-weeks-old rats
# Protocol: (§2) Each primary culture of CSMC was prepared from the corpora cavernosa of 2-3 rats by the following procedure. The penis was cleared of the urethra, blood vessels, fat and connective tissue. The remaining smooth muscle tissue was washed 3 times in sterile PBS (phosphate-buffered saline) and cut into 2-3 mm^3 segments. The segments were placed evenly onto a 100-mm cell culture dish (Falcon-Becton Dickinson Labware, Franklin Lakes, N.J.) inside a cell culture hood. Approximately 10 min later, 10 ml of Dulbecco's Modified Eagle Medium (DMEM) containing penicillin (100 units/ml), streptomycin (100 μg/ml), and 10% FBS was carefully pipetted into the dish. The dish was then kept undisturbed in a humidified 37° C. incubator with 5% CO2. Five days later, tissue segments that have detached from the dish were removed, and the medium was replaced with fresh medium. Another 5 days later, all tissue segments were removed and the medium was again replaced with fresh medium. When small islands of cells were noticeable, they were trypsinized and transferred to a fresh culture dish. […]
# (§3) Cell proliferation assays were performed with the CellTiter-96 kit from Promega Inc. (Madison, Wis.). […] After 4 hr of further incubation at 37° C. in the humidified, 5% CO2 incubator, color development, which reflects cell numbers, was recorded with a plate reader (Molecular Devices Corp., Sunnyvale, Calif.) at 490-nm absorbance. […]
# [4] = system: cavernous smooth muscle cells (CSMC); conditions: CSMC from rats of all ages, three days, serum-free medium
# Protocol: as §2, §3
# [5] = system: nNOS-positive nerve fibers in dorsal and intracavernous nerves; conditions: 2 & 4 μg VEGF, week 6; not statistically significant
# [6] = system: Erectile Dysfunction Induced by Hypercholesterolemia in a Rat Model; experiment: Erectile function in rats fed a high cholesterol diet (Example 5); format: in vivo; conditions: 6 months cholesterol diet, 4 months after intracavernous treatment
# Protocol: Twenty-one Sprague-Dawley rats were used. All rats were fed a 2.5% cholesterol diet with added lard starting at 2 weeks of age for 6 months. The rats were divided into three groups. All groups after two months of a high cholesterol diet underwent serum evaluation of cholesterol and intracavernous injection of saline or treatment. Group 1, the control group, received intracavernous injection of saline, group 2, the VEGF group, received intracavernous injection of 4 ug of VEGF, and group 3, the AAV-BDNF group received 15 ug of BDNF. After six months of cholesterol diet and 4 months of treatment, all rats were subjected to cavernous nerve electrostimulation, cavernosometry with intracavernous papaverine injection, and infusion cavernosometry with heparinized saline to measure erectile function.
# [7] = system: cavernous smooth muscle cells (CSMC); conditions: 4 hr
# Protocol: (§4) Primary aorta SMC cultures were prepared similarly with aortas isolated from 16-week-old male rats.
# (§5) Cell migration assays were performed in 6.5-mm Transwell chambers of Corning Costar Corporation (Cambridge, Mass.). The Transwell inserts (upper chambers) were bathed in a solution containing 13.4 μg/ml fibronectin in PBS at 37° C. for 1 hr and allowed to air-dry. The dried upper chambers were then placed in the lower chambers, each of which contained 700 μl of serum-free DMEM supplemented with 0.1% BSA and 0 to 500 ng/ml of VEGF. SMC that had been grown to 70% confluence were further conditioned in serum-free DMEM (containing 0.1% BSA) for 2 hr and then trypsinized. The trypsinized cells were washed in PBS and resuspended at a concentration of 80,000 cells per ml in serum-free DMEM (containing 0.1% BSA). One hundred μl of the cell suspension was then added to each upper chamber. After 4 hr of incubation at 37° C., all liquid in the upper and lower chambers was removed by aspiration. The membranes in the upper chambers were subsequently fixed in 1% buffered formalin for 5 min and stained with 2% crystal violet. Non-migratory cells on the upper side of the membranes were scraped off with cotton swabs. Well locations were marked on the membranes and total cells per well were counted visually in a masked fashion. Well locations were then correlated with the concentrations of VEGF in the wells. […]
# Penile dorsal arteries = conditions: serum-free medium, 3 days
# Protocol: Penile dorsal arteries were isolated from rats and cut into 1-mm segments under a 10× microscope. Each segment was attached to a Matrigel-coated coverslip, which was then put in a 60-mm culture dish. Serum-free medium with or without VEGF was added and the arterial culture was incubated for 3 days.
# [8] = system: penile smooth muscle (alpha actin); experiment: Alpha-smooth muscle actin immunohistochemistry of rat penis with image analysis; format: in vivo; conditions: castrated rats
# Protocol: Frozen sections were cut at 10 microns, adhered to charged slides, air dried for 15 minutes then rehydrated with 0.05M PBS for 5 minutes. […] The serum solution was drained and then sections were incubated for 60 minutes with mouse monoclonal anti-alpha-smooth muscle actin (Sigma, St. Louis, Mo.) at a dilution of 1:4000 in PBS. […] Immunochemistry was performed in penile tissues from 4 rats randomly chosen from each subgroup.
# Cross-sectional micrographs of the rat penis at the proximal shaft were examined after immunohistochemistry for alpha actin. Alpha actin, a marker for penile smooth muscle, stains brown and can be seen surrounding the sinusoidal spaces. […] Computerized image analysis with Adobe Photoshop was used to quantify the area of immunostaining by counting the number of digitized pixels corresponding to the area of brown staining, thereby providing some numerical comparison of the quantity of smooth muscle in each specimen.
# [9] = system: major pelvic ganglia (MPG); experiment: Nerve fiber outgrowth from cultured major pelvic ganglia; format: cell-based, rat; set-up: Average fiber length / FIBER LENGTH (average lengths of the growing fibers): unit not given here
# Protocol: Each freshly isolated MPG was cut into 8 pieces of approximately equal size and each piece was then attached to a Matrigel-coated coverslip. The MPG pieces were cultured in serum-free medium supplemented with phosphate-buffered saline (PBS, control), 50 ng/ml of vascular endothelial growth factor (VEGF), 20 ng/ml of brain-derived neurotrophic factor (BDNF), or VEGF+BDNF. After 2 days of incubation, the ganglial tissues with their outgrowing nerve fibers were stained for the expression of NADPH diaphorase and acetylcholinesterase (AchE).
# We have been using several experimental systems to test the efficacy of combination growth factor therapies for impotence. One system employs cultured rat major pelvic ganglia (MPG) that are known to innervate all urogenital organs, including the penis. We discovered that the cultured MPG are able to sprout new nerve fibers (nerve regeneration) from the axonal ends during the first 3 days of culture, especially when treated with VEGF, BDNF, NT-3, or NT-4.
# VSMC (aorta SMC) [10] = conditions: VSMC from 16-weeks-old rats; remark: listed apart in the source
# Protocol: as §4, §5
# [11] = system: outgrowing blood vessels in artery-muscle co-culture; experiment: Artery-muscle co-culture; format: cell-based
# From the text: We extended our above angiogenesis model to include muscles in a co-culture system. The source of muscle was corpus cavernosum, urethra sphincter, or bladder. […] In addition, the combination of VEGF and PDGF encouraged more extensive contacts between the outgrowing vessels with the muscle. More studies with either single or a combination of other growth factors and the molecular mechanism of vessel growth are currently underway. Once the best growth factor or combinations are identified, we will perform in vivo studies in rats with severe vasculogenic ED to see if the in vitro assay helps identify the best angiogenins.
# [12] = system: dorsal nerve, intracavernous smooth muscle cells and endothelial cells; experiment: Transmission electron microscopy of penile tissue (Example 2); format: in vivo, rat
# From the text: Thick sections were cut and stained with toluidine blue to select specific areas for thin sectioning. Thin sections were cut, stained with both uranyl acetate and Reynold's Lead, and examined under the Phillips Tecnai 10 transmission electron microscope. Penile tissues from 4 randomly chosen rats in each subgroups were subjected to electron microscopic examinations.
# [13] = 50 ng/ml VEGF, 20 ng/ml BDNF, 2 days of incubation
# [14] = castrated rats treated with VEGF or AAV-VEGF (pooled)
substance,measurement,setting,value
VEGF,nNOS positive nerve fibers in the dorsal nerves compared to PBS group,[1],increased number
same,"maximal intracavernous pressure (MICP), mean±SEM",[2],37.33±3.29 cm H2O
same,effect on growth of VSMC,VSMC (aorta SMC) [3],did not stimulate growth
same,optimal dosage of VEGF for CSMC growth rate,[4],12.5 ng/mL
same,recovery of nNOS-positive nerve fibers in dorsal and intracavernous nerves,[5],moderate recovery
same,effect on erectile dysfunction caused by high cholesterol diet,[6],seem to reverse the erectile dysfunction
same,"sustained intracavernous pressures during the pharmacologic erection phase of cavernosometry, vs high cholesterol controls",[6],significantly higher
same,VEGF concentration of peak CSMC migration,[7]; CSMC from 1-week-old rats,1 ng/mL
same,optimal dosage of VEGF for CSMC migration,[7]; CSMC from young and old rats except 1-week-old,10 ng/mL
same,length of budding new blood vessels vs untreated culture,Penile dorsal arteries,significantly longer
same,"quantity of penile smooth muscle, qualitative",[8],returns to normal morphology
same,pixel count of alpha actin immunostaining (quantity of smooth muscle),[8]; proximal penile shaft,52990
same,AchE staining intensity,[9]; [13],"8,470±199 IDV"
same,NADPH staining intensity,[9]; [13],"10,126±187 IDV"
same,FIBER LENGTH (average lengths of the growing fibers),[9]; 48 hours after culturing,89
same,effect on migration of VSMC,VSMC (aorta SMC) [10],stimulated migration
same,cell growth in artery-muscle co-culture,[11],encourage the growth of endothelial cells
same,endothelial cells lining capillaries and sinusoids,[12]; castrated rats,endothelial hypertrophy and hyperplasia
same,"mean diameter of non-myelinated axons, dorsal nerve",[12]; [14],0.96±0.33 μm
same,"mean diameter of the myelinated nerve, dorsal nerve",[12]; [14],2.36±0.92 μm
same,"mean thickness of myelin sheath, dorsal nerve",[12]; [14],0.93±0.44 μm
same,intracavernous smooth muscle morphology,"[12]; castrated rats, compared to castrated+Lac Z rats",arranged in clusters with minimal intercellular spaces

# From patent US7265091B2, “Methods and compositions for treating male erectile dysfunction” (The Regents of the University of California, priority 2000, dated 2007)
